From patent US20110318768A1, “METHOD FOR DETERMINING SENSITIVITY OF TUMOR CELLS TO TYROSINE KINASE INHIBITOR AND COMPUTER PROGRAM PRODUCT” (SYSMEX CORPORATION, priority 2010, published 2011)

Test system: tyrosine kinase in cell membrane fraction of ZR-75-1
Assay: Tyrosine kinase activity inhibition rate in cell membrane fraction (Poly-Glu4-Tyr substrate)
Format: biochemical
Settings: 25 μM kinase inhibitor, 25 μM ATP
Experimental: (§1) Breast cancer cell lines shown in Table 3 were cultured in a 150 mm dish so as to be about 80% confluent, the cells were recovered using PBS and a scraper, and a cell pellet was obtained by centrifugal operation (900×g, for 5 minutes, at 4° C.). The pellet was frozen with liquid nitrogen and stored at −80° C. until preparation of the measurement sample.
(§2) 500 μl of NP40 (−) solubilized buffer (20 mM HEPES (pH 7.4)), (w/v) % glycerol, 0.2% protease inhibitor cocktail (#P8340: Sigma-Aldrich (product composition: 104 mM AEBSF, 80 μM aprotinin, 4 mM bestatin, 1.4 mM E-64, 2 mM leupeptin, 1.5 mM Pepstatin A), 50 mM NaF and 200 μM Na3VO4) was added to the cell pellet, followed by stirring for 2 seconds three times using a vortex mixer. After being allowed to stand for 10 minutes, the soluble fraction was removed by centrifugal operation (at 20000×g, for 30 minutes, at 4° C.). The obtained pellet was resuspended in 500 μl of NP40 (−) solubilized buffer, the soluble fraction was again removed by centrifugal operation (at 20000×g, for 20 minutes, at 4° C.), and the pellet was washed. The pellet was resuspended by adding 500 μl of NP40 (+) solubilized buffer (a buffer prepared by adding NP-40 to the NP40 (−) solubilized buffer at a final concentration of 1%) to the pellet, pipetting fifty times, and vortexing for 2 seconds three times. After being allowed to stand for 10 minutes, a cell membrane fraction containing a membrane protein was obtained by centrifugal operation (at 20000×g, for 40 minutes, at 4° C.). The protein concentration of the fraction was measured by DC protein assay (#500-0116 JA: Bio-Rad) and the fraction was used as a sample for kinase activity measurement. The sample was frozen with liquid nitrogen and stored at −80° C. until used for the following kinase activity measurement.
(§3) NeutrAvidin Coated Plates (HBC) (96 white plate; #15509: Pierce) were washed three times with 300 μl of TBS-T (20 mM Tris-HCl (pH 7.4)), 150 mM NaCl, 0.1% Tween), and then 100 μl of Poly-Glu4-Tyr biotin conjugate (#12440: Upstate) which had been diluted to 1 μg/ml with TBS (20 mM Tris-HCl (pH 7.4), 150 mM NaCl) was added to the wells. After shaking at 37° C. and 400 rpm for 90 minutes, the wells were washed with 300 μl of TBS-T three times and a measuring plate was obtained.
(§4) The measurement sample was diluted with a kinase buffer (20 mM HEPES (pH 7.4), 25 mM MgCl2, 1.25 mM MnCl2, 250 μM Na3VO4, 12.5 (w/v) % glycerol) so as to adjust the protein concentration to 6.25 μg/ml. The diluted measurement sample was transferred to wells of a 96 well V bottom plate. A DMSO solution (inhibitor concentration: 5 mM) containing one type of tyrosine kinase inhibitors (Inhibitors 1 to 10 shown in Table 6) was added to the wells at a ratio of 1:160 based on the diluted measurement sample solution, followed by mixing thereof. As the control, DMSO was added to the diluted measurement sample at the same ratio as the solution of the inhibitor. The used tyrosine kinase inhibitors are represented as Inhibitors 1 to 10 in Table 6.
(§5) After addition of the inhibitors, a mixed solution of the measurement sample and the inhibitor was allowed to stand at room temperature for 10 minutes. 40 μl of the mixed solution was transferred to wells of the measuring plate and 10 μl of an ATP solution (20 mM HEPES (pH 7.4), […]) as the phosphate group donor was added to the wells.
(§6) The composition of the solution in the wells is as follows: protein concentration: 5 μg/ml, 20 mM HEPES (pH 7.4), 20 mM MgCl2, 1 mM MnCl2, 200 μM Na3VO4, 10 (w/v) % glycerol, 25 μM ATP, 25 μM kinase inhibitor.
(§7) After shaking the measuring plate at 37° C. and 400 rpm for 60 minutes, the solution was removed from the measuring plate, and the wells were washed with 300 μl of TBS-T three times. 100 μl of Starting Block T20 (TBS) (#37543: Pierce) as a blocking solution was added to the wells, followed by blocking at 37° C. and 400 rpm for 10 minutes. The blocking solution was removed from the measuring plate. […]

Structure (SMILES)	Inhibition rate [%]
Cc1cc(F)c(Nc2ncnc3cc(OCc4ccccc4)ccc23)cc1O.Cl [Inhibitor 8]	0.6
COc1cc2c(cc1OC)-c1[nH]nc(Nc3cccc(F)c3)c1C2 [Inhibitor 6]	32.5

Test system: tyrosine kinase in cell membrane fraction of HS578T
Assay: as above
Format: biochemical
Settings: 25 μM kinase inhibitor, 25 μM ATP
Experimental: as §1, §2, §3, §4, §5, §6, §7

Structure (SMILES)	Inhibition rate [%]
Cc1cc(F)c(Nc2ncnc3cc(OCc4ccccc4)ccc23)cc1O.Cl [Inhibitor 8]	5.5
COc1cc2c(cc1OC)-c1[nH]nc(Nc3cccc(F)c3)c1C2 [Inhibitor 6]	49.7

Test system: tyrosine kinase in cell membrane fraction of HCC1419
Assay: as above
Format: biochemical
Settings: 25 μM kinase inhibitor, 25 μM ATP
Experimental: as §1, §2, §3, §4, §5, §6, §7

Structure (SMILES)	Inhibition rate [%]
Cc1cc(F)c(Nc2ncnc3cc(OCc4ccccc4)ccc23)cc1O.Cl [Inhibitor 8]	14.7
COc1cc2c(cc1OC)-c1[nH]nc(Nc3cccc(F)c3)c1C2 [Inhibitor 6]	33.5

Test system: tyrosine kinase in cell membrane fraction of BT-20
Assay: as above
Format: biochemical
Settings: 25 μM kinase inhibitor, 25 μM ATP
Experimental: as §1, §2, §3, §4, §5, §6, §7

Structure (SMILES)	Inhibition rate [%]
Cc1cc(F)c(Nc2ncnc3cc(OCc4ccccc4)ccc23)cc1O.Cl [Inhibitor 8]	18.5
COc1cc2c(cc1OC)-c1[nH]nc(Nc3cccc(F)c3)c1C2 [Inhibitor 6]	28.1

Test system: tyrosine kinase in cell membrane fraction of AU565
Assay: as above
Format: biochemical
Settings: 25 μM kinase inhibitor, 25 μM ATP
Experimental: as §1, §2, §3, §4, §5, §6, §7

Structure (SMILES)	Inhibition rate [%]
Cc1cc(F)c(Nc2ncnc3cc(OCc4ccccc4)ccc23)cc1O.Cl [Inhibitor 8]	11.5
COc1cc2c(cc1OC)-c1[nH]nc(Nc3cccc(F)c3)c1C2 [Inhibitor 6]	18.4

Test system: tyrosine kinase in cell membrane fraction of BT-474
Assay: as above
Format: biochemical
Settings: 25 μM kinase inhibitor, 25 μM ATP
Experimental: as §1, §2, §3, §4, §5, §6, §7

Structure (SMILES)	Inhibition rate [%]
Cc1cc(F)c(Nc2ncnc3cc(OCc4ccccc4)ccc23)cc1O.Cl [Inhibitor 8]	18.0
COc1cc2c(cc1OC)-c1[nH]nc(Nc3cccc(F)c3)c1C2 [Inhibitor 6]	30.7

Test system: tyrosine kinase in cell membrane fraction of MDA-MB-157
Assay: as above
Format: biochemical
Settings: 25 μM kinase inhibitor, 25 μM ATP
Experimental: as §1, §2, §3, §4, §5, §6, §7

Structure (SMILES)	Inhibition rate [%]
Cc1cc(F)c(Nc2ncnc3cc(OCc4ccccc4)ccc23)cc1O.Cl [Inhibitor 8]	8.3
COc1cc2c(cc1OC)-c1[nH]nc(Nc3cccc(F)c3)c1C2 [Inhibitor 6]	49.0

Test system: tyrosine kinase in cell membrane fraction of HCC1937
Assay: as above
Format: biochemical
Settings: 25 μM kinase inhibitor, 25 μM ATP
Experimental: as §1, §2, §3, §4, §5, §6, §7

Structure (SMILES)	Inhibition rate [%]
Cc1cc(F)c(Nc2ncnc3cc(OCc4ccccc4)ccc23)cc1O.Cl [Inhibitor 8]	11.1
COc1cc2c(cc1OC)-c1[nH]nc(Nc3cccc(F)c3)c1C2 [Inhibitor 6]	41.8

Test system: tyrosine kinase in cell membrane fraction of HCC1806
Assay: as above
Format: biochemical
Settings: 25 μM kinase inhibitor, 25 μM ATP
Experimental: as §1, §2, §3, §4, §5, §6, §7

Structure (SMILES)	Inhibition rate [%]
Cc1cc(F)c(Nc2ncnc3cc(OCc4ccccc4)ccc23)cc1O.Cl [Inhibitor 8]	6.4
COc1cc2c(cc1OC)-c1[nH]nc(Nc3cccc(F)c3)c1C2 [Inhibitor 6]	38.8

Test system: tyrosine kinase in cell membrane fraction of HCC1428
Assay: as above
Format: biochemical
Settings: 25 μM kinase inhibitor, 25 μM ATP
Experimental: as §1, §2, §3, §4, §5, §6, §7

Structure (SMILES)	Inhibition rate [%]
Cc1cc(F)c(Nc2ncnc3cc(OCc4ccccc4)ccc23)cc1O.Cl [Inhibitor 8]	2.2
COc1cc2c(cc1OC)-c1[nH]nc(Nc3cccc(F)c3)c1C2 [Inhibitor 6]	30.0

Test system: tyrosine kinase in cell membrane fraction of UACC893
Assay: as above
Format: biochemical
Settings: UACC893; 25 μM kinase inhibitor, 25 μM ATP
Experimental: as §1, §2, §3, §4, §5, §6, §7

Structure (SMILES)	Inhibition rate [%]
Cc1cc(F)c(Nc2ncnc3cc(OCc4ccccc4)ccc23)cc1O.Cl [Inhibitor 8]	3.3
COc1cc2c(cc1OC)-c1[nH]nc(Nc3cccc(F)c3)c1C2 [Inhibitor 6]	28.0

Test system: tyrosine kinase in cell membrane fraction of MDA-MB-231
Assay: as above
Format: biochemical
Settings: 25 μM kinase inhibitor, 25 μM ATP
Experimental: as §1, §2, §3, §4, §5, §6, §7

Structure (SMILES)	Inhibition rate [%]
Cc1cc(F)c(Nc2ncnc3cc(OCc4ccccc4)ccc23)cc1O.Cl [Inhibitor 8]	12.8
COc1cc2c(cc1OC)-c1[nH]nc(Nc3cccc(F)c3)c1C2 [Inhibitor 6]	45.7

Test system: tyrosine kinase in cell membrane fraction of T47D
Assay: as above
Format: biochemical
Settings: 25 μM kinase inhibitor, 25 μM ATP
Experimental: as §1, §2, §3, §4, §5, §6, §7

Structure (SMILES)	Inhibition rate [%]
Cc1cc(F)c(Nc2ncnc3cc(OCc4ccccc4)ccc23)cc1O.Cl [Inhibitor 8]	38.1
COc1cc2c(cc1OC)-c1[nH]nc(Nc3cccc(F)c3)c1C2 [Inhibitor 6]	37.5

Test system: tyrosine kinase in cell membrane fraction of MDA-MB-436
Assay: as above
Format: biochemical
Settings: 25 μM kinase inhibitor, 25 μM ATP
Experimental: as §1, §2, §3, §4, §5, §6, §7

Structure (SMILES)	Inhibition rate [%]
Cc1cc(F)c(Nc2ncnc3cc(OCc4ccccc4)ccc23)cc1O.Cl [Inhibitor 8]	12.1
COc1cc2c(cc1OC)-c1[nH]nc(Nc3cccc(F)c3)c1C2 [Inhibitor 6]	36.1

Test system: tyrosine kinase in cell membrane fraction of BT-549
Assay: as above
Format: biochemical
Settings: 25 μM kinase inhibitor, 25 μM ATP
Experimental: as §1, §2, §3, §4, §5, §6, §7

Structure (SMILES)	Inhibition rate [%]
Cc1cc(F)c(Nc2ncnc3cc(OCc4ccccc4)ccc23)cc1O.Cl [Inhibitor 8]	5.1
COc1cc2c(cc1OC)-c1[nH]nc(Nc3cccc(F)c3)c1C2 [Inhibitor 6]	50.1

Test system: tyrosine kinase in cell membrane fraction of HCC1569
Assay: as above
Format: biochemical
Settings: 25 μM kinase inhibitor, 25 μM ATP
Experimental: as §1, §2, §3, §4, §5, §6, §7

Structure (SMILES)	Inhibition rate [%]
Cc1cc(F)c(Nc2ncnc3cc(OCc4ccccc4)ccc23)cc1O.Cl [Inhibitor 8]	15.5
COc1cc2c(cc1OC)-c1[nH]nc(Nc3cccc(F)c3)c1C2 [Inhibitor 6]	57.8

Test system: tyrosine kinase in cell membrane fraction of MCF7
Assay: as above
Format: biochemical
Settings: 25 μM kinase inhibitor, 25 μM ATP
Experimental: as §1, §2, §3, §4, §5, §6, §7

Structure (SMILES)	Inhibition rate [%]
Cc1cc(F)c(Nc2ncnc3cc(OCc4ccccc4)ccc23)cc1O.Cl [Inhibitor 8]	45.7
COc1cc2c(cc1OC)-c1[nH]nc(Nc3cccc(F)c3)c1C2 [Inhibitor 6]	44.4
